# Assays:
# [1] = target: Glycogen synthase kinase-3 beta (Homo sapiens, UniProt P49841); test: Inhibition of C-terminal FLAG-tagged GSK3beta (unknown origin) expressed in baculovirus system after 30 mins
# [2] = Inhibition of PKA (unknown origin) expressed in Escherichia coli after 10 mins; set-up: species or system Homo sapiens
# [3] = Solubility of the compound in form of solid dispersion in phosphate buffer at pH 6.8; type: physicochemical
# [4] = tested on: A-375; test: Antitumor activity against human A375 cells expressing BRAF V600E mutant xenografted in F344 nude rat assessed as reduction in tumor size at 24.1 mg/kg, po bid for 14 days relative to control; type: functional
# [5] = tested on: Rattus norvegicus; test: Toxicity in F344 nude rat xenografted with human A375 cells expressing BRAF V600E mutant assessed as body weight change at 9.7 mg/kg, po bid for 14 days relative to control; type: organism-based, A-375; set-up: dose 9.7 mg/kg, route oral; conditions: in vivo, 336 h
# [6] = tested on: Rattus norvegicus; test: Toxicity in F344 nude rat xenografted with human HMVII cells expressing NRAS Q61K/BRAF G469V mutant assessed as body weight change at 24.1 mg/kg, po bid for 14 days; type: organism-based; set-up: dose 24.1 mg/kg, route oral; conditions: in vivo, 336 h
# [7] = target: Serine/threonine-protein kinase Chk1 (Homo sapiens, UniProt O14757); test: Inhibition of CHK1 (unknown origin) using alpha-casein as substrate after 20 mins
# [8] = target: Casein kinase I isoform delta (Homo sapiens, UniProt P48730); test: Inhibition of CK1delta (unknown origin) using CK1tide as substrate after 20 mins
# [9] = target: Protein kinase C theta type (Homo sapiens, UniProt Q04759); test: Inhibition of C-terminal FLAG-tagged PKC-theta (unknown origin) expressed in […] using MBP as substrate after 60 mins
# [10] = Antitumor activity against human HMVII cells expressing NRAS Q61K/BRAF G469V mutant xenografted in F344 nude rat assessed as reduction in tumor size at 9.7 mg/kg, po bid for 14 days relative to control; type: functional, HMV-2
# [11] = Total clearance in rat at 1 mg/kg, iv; type: ADME, organism-based; set-up: dose 1 mg/kg, route intravenous; conditions: in vivo
# [12] = target: T1, Serine/threonine-protein kinase B-raf (Homo sapiens, UniProt P15056, V600E); test: Inhibition of BRAF V600E mutant (unknown origin) in presence of 1000 uM ATP by ELISA
# T1 sequence (P15056 2-766 V600E limits assumed): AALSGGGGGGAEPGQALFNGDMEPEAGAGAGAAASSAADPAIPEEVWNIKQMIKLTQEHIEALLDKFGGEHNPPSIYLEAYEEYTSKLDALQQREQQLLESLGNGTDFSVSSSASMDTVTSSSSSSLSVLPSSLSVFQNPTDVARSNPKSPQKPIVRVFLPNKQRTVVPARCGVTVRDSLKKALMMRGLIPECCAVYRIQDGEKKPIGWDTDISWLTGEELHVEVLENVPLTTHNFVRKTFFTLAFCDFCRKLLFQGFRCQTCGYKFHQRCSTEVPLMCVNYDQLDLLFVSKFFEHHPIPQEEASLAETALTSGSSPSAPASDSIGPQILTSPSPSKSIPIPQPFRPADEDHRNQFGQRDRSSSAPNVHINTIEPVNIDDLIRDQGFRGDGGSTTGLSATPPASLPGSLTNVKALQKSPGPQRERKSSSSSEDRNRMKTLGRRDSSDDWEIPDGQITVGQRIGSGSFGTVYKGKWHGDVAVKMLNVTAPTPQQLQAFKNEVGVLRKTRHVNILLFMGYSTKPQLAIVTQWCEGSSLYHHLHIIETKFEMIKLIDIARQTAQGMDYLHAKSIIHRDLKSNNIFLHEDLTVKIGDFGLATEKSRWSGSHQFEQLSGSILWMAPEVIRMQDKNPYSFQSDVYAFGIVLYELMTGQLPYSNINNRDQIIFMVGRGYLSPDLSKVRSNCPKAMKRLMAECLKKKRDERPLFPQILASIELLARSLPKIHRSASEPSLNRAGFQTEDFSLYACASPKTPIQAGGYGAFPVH
# [13] = target: T2, Serine/threonine-protein kinase B-raf (Homo sapiens, UniProt P15056)
# T2 sequence (P15056 whole entry): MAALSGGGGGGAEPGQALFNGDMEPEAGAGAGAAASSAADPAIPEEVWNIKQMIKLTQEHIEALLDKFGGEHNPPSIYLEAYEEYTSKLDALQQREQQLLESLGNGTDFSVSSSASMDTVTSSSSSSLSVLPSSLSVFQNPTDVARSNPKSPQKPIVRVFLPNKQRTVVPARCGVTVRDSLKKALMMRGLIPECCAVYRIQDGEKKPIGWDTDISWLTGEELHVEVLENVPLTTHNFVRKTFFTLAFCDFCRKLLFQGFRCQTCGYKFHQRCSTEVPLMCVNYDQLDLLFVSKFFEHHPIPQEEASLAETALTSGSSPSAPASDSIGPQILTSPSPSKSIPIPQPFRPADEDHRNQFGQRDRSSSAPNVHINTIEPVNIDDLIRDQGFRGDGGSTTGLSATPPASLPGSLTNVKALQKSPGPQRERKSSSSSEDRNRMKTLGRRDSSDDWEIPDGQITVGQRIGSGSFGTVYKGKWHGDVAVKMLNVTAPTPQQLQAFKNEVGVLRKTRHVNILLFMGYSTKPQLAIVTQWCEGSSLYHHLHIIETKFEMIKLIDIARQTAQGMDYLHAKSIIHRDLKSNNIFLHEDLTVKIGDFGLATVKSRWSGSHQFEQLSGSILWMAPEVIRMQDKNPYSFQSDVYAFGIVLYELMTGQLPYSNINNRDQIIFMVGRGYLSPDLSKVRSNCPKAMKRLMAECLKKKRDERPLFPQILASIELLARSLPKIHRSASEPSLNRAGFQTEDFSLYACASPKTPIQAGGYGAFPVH
# Description: Binding affinity to BRAF (unknown origin) assessed as dissociation half life by surface plasmon resonance analysis
# [14] = Volume of distribution at steady state in dog at 1 mg/kg, iv; type: ADME, organism-based, Canis lupus familiaris; set-up: dose 1 mg/kg, route intravenous; conditions: in vivo, read-out: Vdss
# [15] = Oral bioavailability in rat at 25 mg/kg; type: ADME, organism-based; conditions: in vivo
# [16] = target: Mitogen-activated protein kinase kinase kinase 1 (Homo sapiens, UniProt Q13233); test: Inhibition of C-terminal FLAG-tagged MEKK1 (unknown origin) expressed in baculovirus system using MBP as substrate after 60 mins
# [17] = AUC (0 to 24 hrs) in dog at 1 mg/kg, iv; type: ADME, organism-based, Canis lupus familiaris; set-up: time < 24 hr, dose 1 mg/kg, route intravenous; conditions: plasma
# [18] = target: T2, Serine/threonine-protein kinase B-raf; test: Inhibition of N-terminal FLAG-tagged wild type BRAF (unknown origin) expressed in baculovirus system using GST-MEK1(K96R) as substrate after 20 mins
# [19] = tested on: A-375; test: Antitumor activity against human A375 cells expressing BRAF V600E mutant xenografted in F344 nude rat assessed as reduction in tumor size at 1.9 mg/kg, po bid for 14 days relative to control; type: functional
# [20] = target: RAF proto-oncogene serine/threonine-protein kinase (Homo sapiens, UniProt P04049); test: Inhibition of CRAF (unknown origin) in presence of 1000 uM ATP by ELISA
# [21] = Antiproliferative activity against human HMVII cells assessed as growth inhibition after 72 hrs by chemi-luminescence cell viability assay; type: functional; conditions: HMV-2, 72 h
# [22] = target: Angiopoietin-1 receptor (Homo sapiens, UniProt Q02763); test: Inhibition of TIE2 receptor (unknown origin) using biotinylated poly-Glu-Tyr (4:1) as substrate preincubated for 5 mins measured after 12 hrs
# [23] = target: Insulin receptor (Homo sapiens, UniProt P06213); test: Inhibition of Insulin receptor (unknown origin) using biotinylated poly-Glu-Tyr (4:1) as substrate preincubated for 5 mins measured after 12 hrs
# [24] = tested on: Rattus norvegicus; test: Toxicity in F344 nude rat xenografted with human A375 cells expressing BRAF V600E mutant assessed as body weight change at 24.1 mg/kg, po bid for 14 days relative to control; type: organism-based, A-375; set-up: dose 24.1 mg/kg, route oral; conditions: in vivo, 336 h
# [25] = tested on: Rattus norvegicus; test: Toxicity in F344 nude rat xenografted with human HMVII cells expressing NRAS Q61K/BRAF G469V mutant assessed as body weight change at 3.9 mg/kg, po bid for 14 days; type: organism-based; set-up: dose 3.9 mg/kg, route oral; conditions: in vivo, 336 h
# [26] = target: Inhibitor of nuclear factor kappa-B kinase subunit beta (Homo sapiens, UniProt O14920); test: Inhibition of C-terminal FLAG-tagged IKK beta (unknown origin) expressed in baculovirus system using IkappaBalpha as substrate after 40 mins
# [27] = Mean residence time in rat at 25 mg/kg, po; type: ADME, organism-based; set-up: dose 25 mg/kg, route oral; conditions: in vivo
# [28] = Solubility of the compound in phosphate buffer at pH 6.8; type: physicochemical
# [29] = Total clearance in dog at 1 mg/kg, iv; type: ADME, organism-based, Canis lupus familiaris; set-up: dose 1 mg/kg, route intravenous; conditions: in vivo
# [30] = target: Receptor tyrosine-protein kinase erbB-2 (Homo sapiens, UniProt P04626); test: Inhibition of N-terminal peptide (DYKDDDD)-tagged HER2 (unknown origin) expressed in baculovirus system using biotinylated poly-Glu-Tyr (4:1) as substrate preincubated for 5 mins measured after 12 hrs by scintillation counting
# Receptor tyrosine-protein kinase erbB-2, sequence (P04626 whole entry): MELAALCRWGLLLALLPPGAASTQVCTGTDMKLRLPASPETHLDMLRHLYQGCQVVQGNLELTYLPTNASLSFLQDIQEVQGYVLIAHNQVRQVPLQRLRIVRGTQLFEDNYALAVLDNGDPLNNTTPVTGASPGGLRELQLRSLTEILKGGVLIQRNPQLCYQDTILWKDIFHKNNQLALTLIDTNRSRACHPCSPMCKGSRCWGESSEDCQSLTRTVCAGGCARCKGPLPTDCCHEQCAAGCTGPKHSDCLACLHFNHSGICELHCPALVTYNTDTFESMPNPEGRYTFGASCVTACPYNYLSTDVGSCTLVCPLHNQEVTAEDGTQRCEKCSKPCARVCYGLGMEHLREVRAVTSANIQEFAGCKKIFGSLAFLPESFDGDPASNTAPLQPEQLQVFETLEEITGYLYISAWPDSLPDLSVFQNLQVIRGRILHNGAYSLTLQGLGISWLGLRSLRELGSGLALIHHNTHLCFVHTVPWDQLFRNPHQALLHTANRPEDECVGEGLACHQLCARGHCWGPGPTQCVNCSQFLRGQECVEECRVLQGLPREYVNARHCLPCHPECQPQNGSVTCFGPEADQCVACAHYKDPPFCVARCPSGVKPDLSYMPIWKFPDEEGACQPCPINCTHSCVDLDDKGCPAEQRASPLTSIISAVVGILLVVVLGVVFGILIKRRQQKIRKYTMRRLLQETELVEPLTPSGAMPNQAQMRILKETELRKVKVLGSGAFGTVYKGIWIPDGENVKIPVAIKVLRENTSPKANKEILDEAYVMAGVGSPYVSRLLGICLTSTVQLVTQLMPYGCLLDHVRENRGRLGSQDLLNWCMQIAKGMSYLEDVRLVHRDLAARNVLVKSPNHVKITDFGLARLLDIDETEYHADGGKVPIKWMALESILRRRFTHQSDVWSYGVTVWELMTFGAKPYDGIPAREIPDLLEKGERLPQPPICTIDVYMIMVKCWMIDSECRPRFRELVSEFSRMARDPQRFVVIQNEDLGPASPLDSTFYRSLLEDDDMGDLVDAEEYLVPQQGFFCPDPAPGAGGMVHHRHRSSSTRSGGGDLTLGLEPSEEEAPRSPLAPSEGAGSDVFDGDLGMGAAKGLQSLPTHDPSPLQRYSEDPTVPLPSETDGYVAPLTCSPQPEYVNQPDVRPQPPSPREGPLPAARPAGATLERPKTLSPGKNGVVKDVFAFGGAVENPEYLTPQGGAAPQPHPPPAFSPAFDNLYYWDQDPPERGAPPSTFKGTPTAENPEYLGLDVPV
# [31] = target: Platelet-derived growth factor receptor beta (Homo sapiens, UniProt P09619); test: Inhibition of PDGFR beta (unknown origin) using biotinylated poly-Glu-Tyr (4:1) as substrate preincubated for 5 mins measured after 12 hrs
# [32] = target: Hepatocyte growth factor receptor (Homo sapiens, UniProt P08581); test: Inhibition of c-Met receptor (unknown origin) using biotinylated poly-Glu-Tyr (4:1) as substrate preincubated for 5 mins measured after 12 hrs
# [33] = target: Fibroblast growth factor receptor 3 (Homo sapiens, UniProt P22607); test: Inhibition of FGFR3 (unknown origin) using biotinylated poly-Glu-Tyr (4:1) as substrate preincubated for 5 mins measured after 12 hrs
# Fibroblast growth factor receptor 3, sequence (P22607 whole entry): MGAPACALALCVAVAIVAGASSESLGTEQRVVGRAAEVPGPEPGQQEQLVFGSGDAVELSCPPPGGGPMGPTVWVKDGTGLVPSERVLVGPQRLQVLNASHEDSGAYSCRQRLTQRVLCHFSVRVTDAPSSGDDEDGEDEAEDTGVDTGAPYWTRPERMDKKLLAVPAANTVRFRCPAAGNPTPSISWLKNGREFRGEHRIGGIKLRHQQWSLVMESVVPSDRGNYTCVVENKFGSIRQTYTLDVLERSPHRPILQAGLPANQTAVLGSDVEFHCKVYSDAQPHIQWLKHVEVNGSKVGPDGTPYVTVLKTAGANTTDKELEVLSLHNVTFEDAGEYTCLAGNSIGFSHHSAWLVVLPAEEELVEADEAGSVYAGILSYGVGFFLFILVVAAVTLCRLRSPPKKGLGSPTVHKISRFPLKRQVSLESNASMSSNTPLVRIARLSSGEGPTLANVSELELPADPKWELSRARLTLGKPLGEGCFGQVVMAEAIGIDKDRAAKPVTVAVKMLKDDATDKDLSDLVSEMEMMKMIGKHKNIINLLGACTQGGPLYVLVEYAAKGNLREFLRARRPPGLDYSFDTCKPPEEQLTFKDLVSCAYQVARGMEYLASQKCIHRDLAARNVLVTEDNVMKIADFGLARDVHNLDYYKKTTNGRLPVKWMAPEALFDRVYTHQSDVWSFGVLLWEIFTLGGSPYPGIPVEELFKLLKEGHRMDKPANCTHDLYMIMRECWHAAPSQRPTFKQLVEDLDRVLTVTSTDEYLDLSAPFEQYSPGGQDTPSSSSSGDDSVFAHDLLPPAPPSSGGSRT
# [34] = tested on: A-375; test: Antiproliferative activity against human A375 cells assessed as growth inhibition after 72 hrs by chemi-luminescence cell viability assay; type: functional; conditions: A-375, 72 h
# [35] = target: Epidermal growth factor receptor (Homo sapiens, UniProt P00533); test: Inhibition of N-terminal peptide (DYKDDDD)-tagged EGFR (unknown origin) expressed in baculovirus system using biotinylated poly-Glu-Tyr (4:1) as substrate preincubated for 5 mins measured after 12 hrs by scintillation counting
# Epidermal growth factor receptor, sequence (P00533 whole entry): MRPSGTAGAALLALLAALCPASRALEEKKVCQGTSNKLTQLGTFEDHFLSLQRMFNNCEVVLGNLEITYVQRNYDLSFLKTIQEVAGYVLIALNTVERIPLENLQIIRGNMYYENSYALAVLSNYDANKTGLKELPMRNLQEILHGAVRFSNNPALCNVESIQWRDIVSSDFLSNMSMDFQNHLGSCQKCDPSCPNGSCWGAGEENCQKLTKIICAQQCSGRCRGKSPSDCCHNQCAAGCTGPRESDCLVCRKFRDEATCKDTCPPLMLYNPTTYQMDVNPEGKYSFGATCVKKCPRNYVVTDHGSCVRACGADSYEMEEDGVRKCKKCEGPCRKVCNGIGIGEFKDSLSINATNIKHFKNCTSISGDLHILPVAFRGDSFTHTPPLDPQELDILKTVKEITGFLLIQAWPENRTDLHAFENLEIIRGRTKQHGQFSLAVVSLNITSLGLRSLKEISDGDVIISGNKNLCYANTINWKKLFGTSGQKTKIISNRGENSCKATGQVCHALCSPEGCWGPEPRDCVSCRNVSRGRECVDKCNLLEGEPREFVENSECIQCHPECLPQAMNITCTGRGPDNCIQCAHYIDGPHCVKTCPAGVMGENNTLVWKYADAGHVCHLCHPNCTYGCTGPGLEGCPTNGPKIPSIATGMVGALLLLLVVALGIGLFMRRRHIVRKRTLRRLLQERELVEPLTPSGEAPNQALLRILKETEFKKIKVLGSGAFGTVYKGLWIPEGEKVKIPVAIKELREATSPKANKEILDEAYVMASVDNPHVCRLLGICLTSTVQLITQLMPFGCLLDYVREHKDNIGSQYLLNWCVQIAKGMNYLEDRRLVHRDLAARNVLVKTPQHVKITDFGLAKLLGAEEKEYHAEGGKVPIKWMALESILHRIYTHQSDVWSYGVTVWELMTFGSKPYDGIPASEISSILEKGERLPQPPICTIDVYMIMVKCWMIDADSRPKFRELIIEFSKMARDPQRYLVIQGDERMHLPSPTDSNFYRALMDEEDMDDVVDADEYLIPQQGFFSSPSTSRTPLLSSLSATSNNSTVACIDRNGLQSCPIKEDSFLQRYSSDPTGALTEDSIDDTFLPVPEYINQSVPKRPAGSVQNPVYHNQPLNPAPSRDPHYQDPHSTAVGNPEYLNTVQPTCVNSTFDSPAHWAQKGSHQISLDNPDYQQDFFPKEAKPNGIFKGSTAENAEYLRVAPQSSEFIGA
# [36] = target: T1, Serine/threonine-protein kinase B-raf; test: Inhibition of BRAF V600E mutant in human A375 cells assessed as phosphorylation of MEK after 2 hrs by Western blotting analysis; type: cell-based, A-375
# [37] = Mean residence time in dog at 1 mg/kg, iv; type: ADME, organism-based, Canis lupus familiaris; set-up: dose 1 mg/kg, route intravenous; conditions: in vivo
structure (smiles),measurement,setting,value
N#Cc1c(Oc2ccc(F)c(NC(=O)Cc3cccc(C(F)(F)F)c3)c2)ccc2nc(NC(=O)C3CC3)sc12,IC50,[1],500 nM
same,IC50,[2],> 10000 nM
same,solubility,[3],740 µg/mL
same,T/C,[4],-12.1%
same,Activity,[5],14 g
same,Activity,[6],28.4 g
same,IC50,[7],1400 nM
same,IC50,[8],> 10000 nM
same,IC50,[9],> 10000 nM
same,T/C,[10],26%
same,clearance,[11],6.67 mL/min/kg
same,IC50,[12],58 nM
same,T1/2,[13],10 h
same,Vd,[14],1.57 L/kg
same,bioavailability,[15],51.7%
same,IC50,[16],> 10000 nM
same,AUC(0-t) at 24 h,[17],1430 ng·h/mL
same,IC50,[18],8.3 nM
same,T/C,[19],103%
same,IC50,[20],62 nM
same,GI50,[21],200 nM
same,IC50,[22],740 nM
same,IC50,[23],> 10000 nM
same,Activity,[24],18.6 g
same,Activity,[25],-4.8 g
same,IC50,[26],3700 nM
same,MRT,[27],6.27 h
same,solubility,[28],< 0.02 µg/mL
same,clearance,[29],11.7 mL/min/kg
same,IC50,[30],> 10000 nM
same,IC50,[31],120 nM
same,IC50,[32],> 10000 nM
same,IC50,[33],280 nM
same,GI50,[34],66 nM
same,IC50,[35],> 10000 nM
same,IC50,[36],12 nM
same,MRT,[37],2.23 h

# Reference: ChEMBL document CHEMBL3124815, “Discovery of a selective kinase inhibitor (TAK-632) targeting pan-RAF inhibition: design, synthesis, and biological evaluation of C-7-substituted 1,3-benzothiazole derivatives” (J Med Chem, 2013)
